{"source": "the NIST ThermoML archive (doi:10.1016/j.jct.2014.05.013)", "key": {"[1]": {"conditions": "100 kPa, Liquid, Vibrating tube method"}, "[2]": {"experiment": "wn = mass fraction of the nth substance listed", "conditions": "100 kPa, Liquid, Vibrating tube method"}, "[3]": {"experiment": "refractive index (Na D-line) (dimensionless); wn = mass fraction of the nth substance listed", "conditions": "100 kPa, Liquid, Standard Abbe refractometry"}}, "note": "Numbers after ± are expanded uncertainties."}
{"smiles": "CNC=O", "note": "[N-methylformamide]", "values": [{"measurement": "mass density", "setting": "[1]; 288.15 K", "value": "1007.94 ± 1", "unit": "kg/m3"}, {"measurement": "mass density", "setting": "[1]; 298.15 K", "value": "999.25 ± 1", "unit": "kg/m3"}, {"measurement": "mass density", "setting": "[1]; 308.15 K", "value": "990.63 ± 1", "unit": "kg/m3"}]}
{"smiles": "CNC=O", "note": "[N-methylformamide] + O", "values": [{"measurement": "mass density", "setting": "[2]; 288.15 K, w1 = 0.2", "value": "1010.26 ± 1", "unit": "kg/m3"}, {"measurement": "mass density", "setting": "[2]; 288.15 K, w1 = 0.4", "value": "1019.56 ± 1", "unit": "kg/m3"}, {"measurement": "mass density", "setting": "[2]; 288.15 K, w1 = 0.6", "value": "1023.57 ± 1", "unit": "kg/m3"}, {"measurement": "mass density", "setting": "[2]; 288.15 K, w1 = 0.8", "value": "1019.32 ± 1", "unit": "kg/m3"}, {"measurement": "mass density", "setting": "[2]; 288.15 K, w1 = 1", "value": "1007.94 ± 1", "unit": "kg/m3"}, {"measurement": "mass density", "setting": "[2]; 298.15 K, w1 = 0.2", "value": "1006.21 ± 1", "unit": "kg/m3"}, {"measurement": "mass density", "setting": "[2]; 298.15 K, w1 = 0.4", "value": "1013.7 ± 1", "unit": "kg/m3"}, {"measurement": "mass density", "setting": "[2]; 298.15 K, w1 = 0.6", "value": "1016.29 ± 1", "unit": "kg/m3"}, {"measurement": "mass density", "setting": "[2]; 298.15 K, w1 = 0.8", "value": "1011.11 ± 1", "unit": "kg/m3"}, {"measurement": "mass density", "setting": "[2]; 298.15 K, w1 = 1", "value": "999.25 ± 1", "unit": "kg/m3"}, {"measurement": "mass density", "setting": "[2]; 308.15 K, w1 = 0.2", "value": "1001.56 ± 1", "unit": "kg/m3"}, {"measurement": "mass density", "setting": "[2]; 308.15 K, w1 = 0.4", "value": "1007.51 ± 1", "unit": "kg/m3"}, {"measurement": "mass density", "setting": "[2]; 308.15 K, w1 = 0.6", "value": "1008.9 ± 1", "unit": "kg/m3"}, {"measurement": "mass density", "setting": "[2]; 308.15 K, w1 = 0.8", "value": "1003.04 ± 1", "unit": "kg/m3"}, {"measurement": "mass density", "setting": "[2]; 308.15 K, w1 = 1", "value": "990.63 ± 1", "unit": "kg/m3"}]}
{"smiles": "[Cl-].[Cs+]", "note": "[cesium chloride] + CN(C)C=O", "values": [{"measurement": "refractive index", "setting": "[3]; 288.15 K, w1 = 0.0005", "value": "1.43298 ± 0.00032"}, {"measurement": "refractive index", "setting": "[3]; 298.15 K, w1 = 0.0008", "value": "1.4292 ± 0.00032"}, {"measurement": "refractive index", "setting": "[3]; 308.15 K, w1 = 0.0016", "value": "1.42658 ± 0.00032"}, {"measurement": "mass density", "setting": "[2]; 288.15 K, w1 = 0.0005", "value": "961.27 ± 1", "unit": "kg/m3"}, {"measurement": "mass density", "setting": "[2]; 298.15 K, w1 = 0.0008", "value": "944.51 ± 1", "unit": "kg/m3"}, {"measurement": "mass density", "setting": "[2]; 308.15 K, w1 = 0.0016", "value": "937.54 ± 1", "unit": "kg/m3"}]}
{"smiles": "[Cl-].[Cs+]", "note": "[cesium chloride] + CNC=O", "values": [{"measurement": "refractive index", "setting": "[3]; 288.15 K, w1 = 0.0585", "value": "1.43767 ± 0.00032"}, {"measurement": "refractive index", "setting": "[3]; 298.15 K, w1 = 0.0599", "value": "1.43465 ± 0.00032"}, {"measurement": "refractive index", "setting": "[3]; 308.15 K, w1 = 0.062", "value": "1.43161 ± 0.00032"}, {"measurement": "mass density", "setting": "[2]; 288.15 K, w1 = 0.0585", "value": "1054.35 ± 1.2", "unit": "kg/m3"}, {"measurement": "mass density", "setting": "[2]; 298.15 K, w1 = 0.0599", "value": "1046.14 ± 1.2", "unit": "kg/m3"}, {"measurement": "mass density", "setting": "[2]; 308.15 K, w1 = 0.062", "value": "1038.58 ± 1.2", "unit": "kg/m3"}]}
{"smiles": "[Cl-].[Cs+]", "note": "[cesium chloride] + NC=O", "values": [{"measurement": "refractive index", "setting": "[3]; 288.15 K, w1 = 0.2292", "value": "1.46286 ± 0.00032"}, {"measurement": "refractive index", "setting": "[3]; 298.15 K, w1 = 0.2331", "value": "1.46096 ± 0.00032"}, {"measurement": "refractive index", "setting": "[3]; 308.15 K, w1 = 0.2412", "value": "1.45811 ± 0.00032"}, {"measurement": "mass density", "setting": "[2]; 288.15 K, w1 = 0.2292", "value": "1359.39 ± 1.3", "unit": "kg/m3"}, {"measurement": "mass density", "setting": "[2]; 298.15 K, w1 = 0.2331", "value": "1354.37 ± 1.3", "unit": "kg/m3"}, {"measurement": "mass density", "setting": "[2]; 308.15 K, w1 = 0.2412", "value": "1354.14 ± 1.3", "unit": "kg/m3"}]}
{"smiles": "[Cl-].[Cs+]", "note": "[cesium chloride] + O", "values": [{"measurement": "refractive index", "setting": "[3]; 288.15 K, w1 = 0.646", "value": "1.41803 ± 0.00032"}, {"measurement": "refractive index", "setting": "[3]; 298.15 K, w1 = 0.6545", "value": "1.41971 ± 0.00032"}, {"measurement": "refractive index", "setting": "[3]; 308.15 K, w1 = 0.6666", "value": "1.42086 ± 0.00032"}, {"measurement": "mass density", "setting": "[2]; 288.15 K, w1 = 0.646", "value": "1894.15 ± 1.5", "unit": "kg/m3"}, {"measurement": "mass density", "setting": "[2]; 298.15 K, w1 = 0.6545", "value": "1921.87 ± 1.5", "unit": "kg/m3"}, {"measurement": "mass density", "setting": "[2]; 308.15 K, w1 = 0.6666", "value": "1947.03 ± 1.6", "unit": "kg/m3"}]}
{"smiles": "CN(C)C=O", "note": "[dimethylformamide]", "values": [{"measurement": "mass density", "setting": "[1]; 288.15 K", "value": "953.53 ± 1", "unit": "kg/m3"}, {"measurement": "mass density", "setting": "[1]; 298.15 K", "value": "943.89 ± 1", "unit": "kg/m3"}, {"measurement": "mass density", "setting": "[1]; 308.15 K", "value": "934.39 ± 1", "unit": "kg/m3"}]}
{"smiles": "CN(C)C=O", "note": "[dimethylformamide] + O", "values": [{"measurement": "mass density", "setting": "[2]; 288.15 K, w1 = 0.2", "value": "1000.62 ± 1", "unit": "kg/m3"}, {"measurement": "mass density", "setting": "[2]; 288.15 K, w1 = 0.4", "value": "1003.56 ± 1", "unit": "kg/m3"}, {"measurement": "mass density", "setting": "[2]; 288.15 K, w1 = 0.6", "value": "1001.34 ± 1", "unit": "kg/m3"}, {"measurement": "mass density", "setting": "[2]; 288.15 K, w1 = 0.8", "value": "986.63 ± 1", "unit": "kg/m3"}, {"measurement": "mass density", "setting": "[2]; 288.15 K, w1 = 1", "value": "953.53 ± 1", "unit": "kg/m3"}, {"measurement": "mass density", "setting": "[2]; 298.15 K, w1 = 0.2", "value": "996.32 ± 1", "unit": "kg/m3"}, {"measurement": "mass density", "setting": "[2]; 298.15 K, w1 = 0.4", "value": "996.99 ± 1", "unit": "kg/m3"}, {"measurement": "mass density", "setting": "[2]; 298.15 K, w1 = 0.6", "value": "992.97 ± 1", "unit": "kg/m3"}, {"measurement": "mass density", "setting": "[2]; 298.15 K, w1 = 0.8", "value": "977.38 ± 1", "unit": "kg/m3"}, {"measurement": "mass density", "setting": "[2]; 298.15 K, w1 = 1", "value": "943.89 ± 1", "unit": "kg/m3"}, {"measurement": "mass density", "setting": "[2]; 308.15 K, w1 = 0.2", "value": "991.45 ± 1", "unit": "kg/m3"}, {"measurement": "mass density", "setting": "[2]; 308.15 K, w1 = 0.4", "value": "990 ± 1", "unit": "kg/m3"}, {"measurement": "mass density", "setting": "[2]; 308.15 K, w1 = 0.6", "value": "984.33 ± 1", "unit": "kg/m3"}, {"measurement": "mass density", "setting": "[2]; 308.15 K, w1 = 0.8", "value": "968.07 ± 1", "unit": "kg/m3"}, {"measurement": "mass density", "setting": "[2]; 308.15 K, w1 = 1", "value": "934.39 ± 1", "unit": "kg/m3"}]}
{"smiles": "NC=O", "note": "[formamide]", "values": [{"measurement": "mass density", "setting": "[1]; 288.15 K", "value": "1137.8 ± 1", "unit": "kg/m3"}, {"measurement": "mass density", "setting": "[1]; 298.15 K", "value": "1129.18 ± 1", "unit": "kg/m3"}, {"measurement": "mass density", "setting": "[1]; 308.15 K", "value": "1120.75 ± 1", "unit": "kg/m3"}]}
{"smiles": "NC=O", "note": "[formamide] + O", "values": [{"measurement": "mass density", "setting": "[2]; 288.15 K, w1 = 0.2", "value": "1030.04 ± 1", "unit": "kg/m3"}, {"measurement": "mass density", "setting": "[2]; 288.15 K, w1 = 0.4", "value": "1058.41 ± 1", "unit": "kg/m3"}, {"measurement": "mass density", "setting": "[2]; 288.15 K, w1 = 0.6", "value": "1085.67 ± 1", "unit": "kg/m3"}, {"measurement": "mass density", "setting": "[2]; 288.15 K, w1 = 0.8", "value": "1111.83 ± 1", "unit": "kg/m3"}, {"measurement": "mass density", "setting": "[2]; 288.15 K, w1 = 1", "value": "1137.8 ± 1", "unit": "kg/m3"}, {"measurement": "mass density", "setting": "[2]; 298.15 K, w1 = 0.2", "value": "1025.59 ± 1", "unit": "kg/m3"}, {"measurement": "mass density", "setting": "[2]; 298.15 K, w1 = 0.4", "value": "1052.51 ± 1", "unit": "kg/m3"}, {"measurement": "mass density", "setting": "[2]; 298.15 K, w1 = 0.6", "value": "1078.6 ± 1", "unit": "kg/m3"}, {"measurement": "mass density", "setting": "[2]; 298.15 K, w1 = 0.8", "value": "1103.81 ± 1", "unit": "kg/m3"}, {"measurement": "mass density", "setting": "[2]; 298.15 K, w1 = 1", "value": "1129.18 ± 1", "unit": "kg/m3"}, {"measurement": "mass density", "setting": "[2]; 308.15 K, w1 = 0.2", "value": "1020.7 ± 1", "unit": "kg/m3"}, {"measurement": "mass density", "setting": "[2]; 308.15 K, w1 = 0.4", "value": "1046.35 ± 1", "unit": "kg/m3"}, {"measurement": "mass density", "setting": "[2]; 308.15 K, w1 = 0.6", "value": "1071.43 ± 1", "unit": "kg/m3"}, {"measurement": "mass density", "setting": "[2]; 308.15 K, w1 = 0.8", "value": "1095.93 ± 1", "unit": "kg/m3"}, {"measurement": "mass density", "setting": "[2]; 308.15 K, w1 = 1", "value": "1120.75 ± 1", "unit": "kg/m3"}]}
{"smiles": "O", "note": "[water]", "values": [{"measurement": "mass density", "setting": "[1]; 288.15 K", "value": "999 ± 1", "unit": "kg/m3"}]}
{"smiles": "O", "note": "[water] + CN(C)C=O", "values": [{"measurement": "mass density", "setting": "[2]; 288.15 K, w2 = 0", "value": "999 ± 1", "unit": "kg/m3"}]}
{"smiles": "O", "note": "[water] + CNC=O", "values": [{"measurement": "mass density", "setting": "[2]; 288.15 K, w2 = 0", "value": "999 ± 1", "unit": "kg/m3"}]}
{"smiles": "O", "note": "[water] + NC=O", "values": [{"measurement": "mass density", "setting": "[2]; 288.15 K, w2 = 0", "value": "999 ± 1", "unit": "kg/m3"}]}
